Reference: ChEMBL document CHEMBL1201862, “PubChem BioAssay data set” (2004)
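Exposure lasted 48 hours, with cells grown in 96-well plates and compounds tested at five concentrations. At the GI50, growth is halved.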 Calls of active or inactive are those of the source. Cut-off read from the data, not from the text of the source: active = GI50 up to about 1.1 µM and inactive = higher.

Tests used:
Assay in all cases: DTP human tumour cell line panel, 48 h
[1] = test system: PC-3
[2] = test system: SK-OV-3
[3] = test system: UO-31
[4] = test system: NCI-H226
[5] = test system: SNB-75
[6] = test system: A498
[7] = test system: HOP-62
[8] = test system: HL-60
[9] = test system: HCT-116
[10] = test system: A549
[11] = test system: MCF7
[12] = test system: TK-10
[13] = test system: OVCAR-4
[14] = test system: RPMI-8226
[15] = test system: MDA-MB-435
[16] = test system: BT-549
[17] = test system: CCRF-CEM
[18] = test system: OVCAR-5
[19] = test system: EKVX
[20] = test system: T47D
[21] = test system: NCI-H23
[22] = test system: HT-29
[23] = test system: SK-MEL-28
[24] = test system: MDA-MB-231
[25] = test system: U-251
[26] = test system: SF-295
[27] = test system: SW-620
[28] = test system: K562
[29] = test system: IGROV-1
[30] = test system: HCT-15
[31] = test system: SF-268
[32] = test system: 786-0
[33] = test system: SF-539
[34] = test system: Malme-3M
[35] = test system: Hs-578T
[36] = test system: NCI/ADR-RES
[37] = test system: CAKI-1
[38] = test system: SR
[39] = test system: UACC-257
[40] = test system: OVCAR-3
[41] = test system: COLO 205
[42] = test system: M14
[43] = test system: SK-MEL-5
[44] = test system: LOX IMVI
[45] = test system: RXF 393
[46] = test system: KM12
[47] = test system: SNB-19
[48] = test system: OVCAR-8
[49] = test system: UACC-62
[50] = test system: HCC 2998
[51] = test system: SK-MEL-2
[52] = test system: MOLT-4
[53] = test system: NCI-H460
[54] = test system: ACHN
[55] = test system: DU-145
[56] = test system: HOP-92
[57] = test system: NCI-H522
[58] = test system: SN12C

`COC(=O)c1nc2c(C)c(O)c(O)c([C@H](C)CCC=C(C)C)c2o1` was tested, and the GI50 [1] was 26.6 µM (inactive), the GI50 [2] was 40.6 µM (inactive) and the GI50 [3] was 17.7 µM (inactive). The GI50 [4] was 17.9 µM (inactive), the GI50 [5] was 18.2 µM (inactive) and the GI50 [6] was 21.7 µM (inactive). The GI50 [7] was 16.5 µM (inactive), the GI50 [8] was 16.7 µM (inactive) and the GI50 [9] was 8.34 µM (inactive). For the same molecule, the GI50 [10] was 27.9 µM (inactive), the GI50 [11] was 36.3 µM (inactive) and the GI50 [12] was 39 µM (inactive). The GI50 [13] was 30.1 µM (inactive), the GI50 [14] was 13 µM (inactive) and the GI50 [15] was 26.8 µM (inactive). The GI50 [16] was 37.6 µM (inactive), the GI50 [17] was 2.64 µM (inactive) and the GI50 [18] was 58.6 µM (inactive). The GI50 [19] was 29.7 µM (inactive), the GI50 [20] was 39.8 µM (inactive) and the GI50 [21] was 28.1 µM (inactive). For the same molecule, the GI50 [22] was 19.5 µM (inactive), the GI50 [23] was 32.7 µM (inactive) and the GI50 [24] was 45.1 µM (inactive). For the same molecule, the GI50 [25] was 28.5 µM (inactive), the GI50 [26] was 25 µM (inactive) and the GI50 [27] was 39.5 µM (inactive). The GI50 [28] was 50.6 µM (inactive), the GI50 [29] was 20.9 µM (inactive) and the GI50 [30] was 14 µM. The GI50 [31] was 33.3 µM (inactive), the GI50 [32] was 18.6 µM (inactive) and the GI50 [33] was 20 µM (inactive). The GI50 [34] was 26.7 µM (inactive), the GI50 [35] was 30.5 µM (inactive) and the GI50 [36] was 25.2 µM (inactive). The GI50 [37] was 23.8 µM (inactive), the GI50 [38] was 7 µM (inactive) and the GI50 [39] was 28.4 µM (inactive). The GI50 [40] was 26.5 µM (inactive), the GI50 [41] was 16.2 µM (inactive) and the GI50 [42] was 37.3 µM (inactive). The GI50 [43] was 13 µM (inactive), the GI50 [44] was 43.2 µM (inactive) and the GI50 [45] was 21.4 µM (inactive). For the same molecule, the GI50 [46] was 23.3 µM (inactive), the GI50 [47] was 38.5 µM (inactive) and the GI50 [48] was 38.5 µM (inactive). For the same molecule, the GI50 [49] was > 10 µM (inactive), the GI50 [50] was 30.1 µM (inactive) and the GI50 [51] was 20.5 µM (inactive). For the same molecule, the GI50 [52] was 24.9 µM (inactive), the GI50 [53] was 46.5 µM (inactive) and the GI50 [54] was 22.6 µM (inactive). The GI50 [55] was 65.5 µM (inactive) and the GI50 [56] was 26.5 µM (inactive).

In the case of `Oc1cc(-c2ccc(Cl)cc2)nc2ncccc12`, the GI50 [2] was 46 µM (inactive), the GI50 [3] was 33 µM (inactive) and the GI50 [4] was 44.6 µM (inactive). For the same molecule, the GI50 [5] was 24.5 µM (inactive), the GI50 [6] was 68.1 µM (inactive) and the GI50 [7] was 55 µM (inactive). For the same molecule, the GI50 [10] was 54.2 µM (inactive), the GI50 [11] was 16.6 µM (inactive) and the GI50 [12] was 94.4 µM (inactive). For the same molecule, the GI50 [13] was 56.6 µM (inactive), the GI50 [14] was 24.3 µM (inactive) and the GI50 [16] was > 100 µM (inactive). For the same molecule, the GI50 [57] was 40.3 µM (inactive), the GI50 [17] was 41.7 µM (inactive) and the GI50 [18] was > 100 µM (inactive). The GI50 [19] was 52.2 µM (inactive), the GI50 [20] was 61.7 µM (inactive) and the GI50 [21] was 86.5 µM (inactive). For the same molecule, the GI50 [22] was 34.9 µM (inactive), the GI50 [23] was 57.1 µM (inactive) and the GI50 [24] was 64.6 µM (inactive). For the same molecule, the GI50 [25] was 36.6 µM (inactive), the GI50 [27] was 31.1 µM (inactive) and the GI50 [28] was 11.5 µM (inactive). The GI50 [29] was 44.3 µM (inactive), the GI50 [30] was 27.4 µM and the GI50 [31] was 53.2 µM (inactive). For the same molecule, the GI50 [33] was 45.5 µM (inactive), the GI50 [34] was 28.6 µM (inactive) and the GI50 [35] was 56.2 µM (inactive). For the same molecule, the GI50 [36] was 36 µM (inactive), the GI50 [37] was 61.9 µM (inactive) and the GI50 [38] was 5.56 µM (inactive). The GI50 [39] was 53.5 µM (inactive), the GI50 [41] was 21.7 µM (inactive) and the GI50 [42] was 40.5 µM (inactive). The GI50 [58] was 75.9 µM (inactive), the GI50 [44] was 49 µM (inactive) and the GI50 [46] was 14.9 µM (inactive). The GI50 [47] was 64.1 µM (inactive), the GI50 [48] was 61.9 µM (inactive) and the GI50 [49] was 28.9 µM (inactive). For the same molecule, the GI50 [50] was 69 µM (inactive), the GI50 [51] was 31 µM (inactive) and the GI50 [52] was 40.2 µM (inactive). The GI50 [54] was 79.4 µM (inactive), the GI50 [55] was > 100 µM (inactive) and the GI50 [56] was 41.2 µM (inactive).

In the case of `COc1cc(/C=C/c2ccc(OC)c(OC)c2)cc(OC)c1` [(E)-3,4,3',5'-TETRAMETHOXYSTILBENE], the GI50 [1] was 62.7 µM (inactive), the GI50 [2] was 73.6 µM (inactive) and the GI50 [3] was 19.1 µM (inactive). For the same molecule, the GI50 [4] was 30.2 µM (inactive), the GI50 [5] was 34 µM (inactive) and the GI50 [7] was 63.7 µM (inactive). For the same molecule, the GI50 [9] was 23.1 µM (inactive), the GI50 [10] was 37.8 µM (inactive) and the GI50 [11] was 57 µM (inactive). The GI50 [12] was 56.1 µM (inactive), the GI50 [13] was 53.2 µM (inactive) and the GI50 [14] was 83.4 µM (inactive). The GI50 [15] was 25.7 µM (inactive), the GI50 [16] was 23.7 µM (inactive) and the GI50 [57] was 18.8 µM (inactive). For the same molecule, the GI50 [17] was 76.9 µM (inactive), the GI50 [18] was 39.8 µM (inactive) and the GI50 [19] was 39.9 µM (inactive). The GI50 [20] was 23.6 µM (inactive), the GI50 [21] was 22.9 µM (inactive) and the GI50 [22] was 19.3 µM (inactive). For the same molecule, the GI50 [23] was 36.2 µM (inactive), the GI50 [24] was 22.9 µM (inactive) and the GI50 [25] was 24.7 µM (inactive). The GI50 [26] was 22.2 µM (inactive), the GI50 [27] was 28.7 µM (inactive) and the GI50 [28] was 41.1 µM (inactive). For the same molecule, the GI50 [29] was 46.9 µM (inactive), the GI50 [30] was 7.08 µM and the GI50 [31] was 39.5 µM (inactive). The GI50 [32] was 20.7 µM (inactive), the GI50 [33] was 41.3 µM (inactive) and the GI50 [34] was 49.2 µM (inactive). For the same molecule, the GI50 [35] was 25.8 µM (inactive), the GI50 [36] was 20.9 µM (inactive) and the GI50 [37] was 32.9 µM (inactive). For the same molecule, the GI50 [38] was 30.9 µM (inactive), the GI50 [39] was 46.3 µM (inactive) and the GI50 [40] was 23.7 µM (inactive). For the same molecule, the GI50 [41] was 19.2 µM (inactive), the GI50 [42] was 28.1 µM (inactive) and the GI50 [43] was 19 µM (inactive). The GI50 [58] was 31.3 µM (inactive), the GI50 [44] was 19.9 µM (inactive) and the GI50 [45] was 19.6 µM (inactive). The GI50 [46] was 15.5 µM (inactive), the GI50 [47] was 84.9 µM (inactive) and the GI50 [48] was 39.6 µM (inactive). The GI50 [49] was 19.8 µM (inactive), the GI50 [51] was 32 µM (inactive) and the GI50 [52] was 46.6 µM (inactive). The GI50 [53] was 22.2 µM (inactive), the GI50 [54] was 30.5 µM (inactive) and the GI50 [55] was 45.2 µM (inactive). The GI50 [56] was > 100 µM (inactive).
